# Assay results as given in PubChem BioAssay AID2060601 (Molecular Pharmacology Branch, DTP, NCI, 2025).
# System: 874868-142-R-J2-PDC complex spheroids, growth % test/control
# Assay: Anticancer human tumor 874868-142-R-J2-PDC patient-derived head and neck squamous carcinoma cell line growth inhibition [CLK]
# Conditions: for IC50: curve of first compound; for viability, T/C: stronger effect = lower value
# In short: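 Patient-derived tumor cells grown as complex spheroids with HUVEC endothelial cells and mesenchymal stem cells, treated with drug combinations. Concentrations descend in half-log steps from near clinical Cmax, or from 10 microM if Cmax unknown.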
# 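Also: spheroids exposed to the compounds for 7 days.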
# 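For viability, T/C in this document: 100% = DMSO vehicle control viability.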
compound,measurement,setting,value
CC(C)CC(NC(=O)C(Cc1ccccc1)NC(=O)c1cnccn1)B(O)O (centres undefined) + CNC(=O)c1ccc(Nc2nc(OC3CCCC3)c3c(-c4ccc5nc(C)oc5c4)c[nH]c3n2)c(OC)c1,IC50,second compound 0.0316 µM,4.48 nM
same,IC50,second compound 0.1 µM,4.69 nM
same,IC50,second compound 0.316 µM,4.24 nM
same,IC50,second compound 1 µM,< 0.949 nM
same,IC50,second compound 3.16 µM,< 0.949 nM
same,IC50,second compound 10 µM,< 0.949 nM
same,"viability, T/C","second compound 0.0316 µM, first compound 0.000949 µM",96.8%
same,"viability, T/C","second compound 0.0316 µM, first compound 0.003 µM",76.4%
same,"viability, T/C","second compound 0.0316 µM, first compound 0.00949 µM",0.57%
same,"viability, T/C","second compound 0.0316 µM, first compound 0.03 µM",0.3%
same,"viability, T/C","second compound 0.0316 µM, first compound 0.0949 µM",0.21%
same,"viability, T/C","second compound 0.0316 µM, first compound 0.3 µM",0.23%
same,"viability, T/C","second compound 0.1 µM, first compound 0.000949 µM",89.5%
same,"viability, T/C","second compound 0.1 µM, first compound 0.003 µM",80.7%
same,"viability, T/C","second compound 0.1 µM, first compound 0.00949 µM",1.32%
same,"viability, T/C","second compound 0.1 µM, first compound 0.03 µM",0.44%
same,"viability, T/C","second compound 0.1 µM, first compound 0.0949 µM",0.2%
same,"viability, T/C","second compound 0.1 µM, first compound 0.3 µM",4.13%
same,"viability, T/C","second compound 0.316 µM, first compound 0.000949 µM",66.8%
same,"viability, T/C","second compound 0.316 µM, first compound 0.003 µM",70.8%
same,"viability, T/C","second compound 0.316 µM, first compound 0.00949 µM",6.3%
same,"viability, T/C","second compound 0.316 µM, first compound 0.03 µM",0.22%
same,"viability, T/C","second compound 0.316 µM, first compound 0.0949 µM",0.26%
same,"viability, T/C","second compound 0.316 µM, first compound 0.3 µM",5.41%
same,"viability, T/C","second compound 1 µM, first compound 0.000949 µM",47.7%
same,"viability, T/C","second compound 1 µM, first compound 0.003 µM",31.9%
same,"viability, T/C","second compound 1 µM, first compound 0.00949 µM",0.47%
same,"viability, T/C","second compound 1 µM, first compound 0.03 µM",0.24%
same,"viability, T/C","second compound 1 µM, first compound 0.0949 µM",5.77%
same,"viability, T/C","second compound 1 µM, first compound 0.3 µM",17.3%
same,"viability, T/C","second compound 3.16 µM, first compound 0.000949 µM",45.3%
same,"viability, T/C","second compound 3.16 µM, first compound 0.003 µM",21.6%
same,"viability, T/C","second compound 3.16 µM, first compound 0.00949 µM",0.47%
same,"viability, T/C","second compound 3.16 µM, first compound 0.03 µM",0.19%
same,"viability, T/C","second compound 3.16 µM, first compound 0.0949 µM",7.41%
same,"viability, T/C","second compound 3.16 µM, first compound 0.3 µM",10.4%
same,"viability, T/C","second compound 10 µM, first compound 0.000949 µM",38.6%
same,"viability, T/C","second compound 10 µM, first compound 0.003 µM",20%
same,"viability, T/C","second compound 10 µM, first compound 0.00949 µM",3.06%
same,"viability, T/C","second compound 10 µM, first compound 0.03 µM",0.36%
same,"viability, T/C","second compound 10 µM, first compound 0.0949 µM",3.69%
same,"viability, T/C","second compound 10 µM, first compound 0.3 µM",6.49%
CC1(C)CCC(CN2CCN(c3ccc(C(=O)NS(=O)(=O)c4ccc(NCC5CCOCC5)c([N+](=O)[O-])c4)c(Oc4cnc5[nH]ccc5c4)c3)CC2)=C(c2ccc(Cl)cc2)C1 + CNC(=O)c1ccc(Nc2nc(OC3CCCC3)c3c(-c4ccc5nc(C)oc5c4)c[nH]c3n2)c(OC)c1,IC50,second compound 0.0316 µM,7610 nM
same,IC50,second compound 0.1 µM,8100 nM
same,IC50,second compound 0.316 µM,5320 nM
same,IC50,second compound 1 µM,3200 nM
same,IC50,second compound 3.16 µM,< 31.6 nM
same,IC50,second compound 10 µM,< 31.6 nM
same,"viability, T/C","second compound 0.0316 µM, first compound 0.0316 µM",104%
same,"viability, T/C","second compound 0.0316 µM, first compound 0.1 µM",103%
same,"viability, T/C","second compound 0.0316 µM, first compound 0.316 µM",105%
same,"viability, T/C","second compound 0.0316 µM, first compound 1 µM",92.7%
same,"viability, T/C","second compound 0.0316 µM, first compound 3.16 µM",117%
same,"viability, T/C","second compound 0.0316 µM, first compound 10 µM",33%
same,"viability, T/C","second compound 0.1 µM, first compound 0.0316 µM",95.8%
same,"viability, T/C","second compound 0.1 µM, first compound 0.1 µM",89.4%
same,"viability, T/C","second compound 0.1 µM, first compound 0.316 µM",86.7%
same,"viability, T/C","second compound 0.1 µM, first compound 1 µM",84.2%
same,"viability, T/C","second compound 0.1 µM, first compound 3.16 µM",94.6%
same,"viability, T/C","second compound 0.1 µM, first compound 10 µM",41.1%
same,"viability, T/C","second compound 0.316 µM, first compound 0.0316 µM",56.3%
same,"viability, T/C","second compound 0.316 µM, first compound 0.1 µM",67.9%
same,"viability, T/C","second compound 0.316 µM, first compound 0.316 µM",72.4%
same,"viability, T/C","second compound 0.316 µM, first compound 1 µM",62.5%
same,"viability, T/C","second compound 0.316 µM, first compound 3.16 µM",51%
same,"viability, T/C","second compound 0.316 µM, first compound 10 µM",44.2%
same,"viability, T/C","second compound 1 µM, first compound 0.0316 µM",51.8%
same,"viability, T/C","second compound 1 µM, first compound 0.1 µM",51.5%
same,"viability, T/C","second compound 1 µM, first compound 0.316 µM",50.6%
same,"viability, T/C","second compound 1 µM, first compound 1 µM",46.1%
same,"viability, T/C","second compound 1 µM, first compound 3.16 µM",51.1%
same,"viability, T/C","second compound 1 µM, first compound 10 µM",34.1%
same,"viability, T/C","second compound 3.16 µM, first compound 0.0316 µM",46.2%
same,"viability, T/C","second compound 3.16 µM, first compound 0.1 µM",48.4%
same,"viability, T/C","second compound 3.16 µM, first compound 0.316 µM",39.1%
same,"viability, T/C","second compound 3.16 µM, first compound 1 µM",41.6%
same,"viability, T/C","second compound 3.16 µM, first compound 3.16 µM",43.8%
same,"viability, T/C","second compound 3.16 µM, first compound 10 µM",39.8%
same,"viability, T/C","second compound 10 µM, first compound 0.0316 µM",40.5%
same,"viability, T/C","second compound 10 µM, first compound 0.1 µM",51%
same,"viability, T/C","second compound 10 µM, first compound 0.316 µM",45.6%
same,"viability, T/C","second compound 10 µM, first compound 1 µM",47.7%
same,"viability, T/C","second compound 10 µM, first compound 3.16 µM",57.2%
same,"viability, T/C","second compound 10 µM, first compound 10 µM",31.8%
